{
  "source": "ChEMBL document CHEMBL1154040",
  "about": "“Synthesis and evaluation of novel F-18 labeled fluoroarylvaline derivatives: potential PET imaging agents for tumor detection” (Bioorg Med Chem Lett, 2009)",
  "data": [
    {"tested_on": "Heart", "assay": "Biodistribution in S180 tumor-bearing KM mouse heart assessed per gram of tissue weight at 240 to 370 kBq, iv after 30 mins", "type": "ADME, organism-based", "settings": "in vivo, 0.5 h", "units": {"Drug uptake": "%ID"}, "values": [
      {"smiles": "OC[C@H]1O[C@@H](O)[C@H]([18F])[C@@H](O)[C@@H]1O", "note": "[FLUDEOXYGLUCOSE-F18]", "Drug uptake": 2.69}
    ]},
    {"tested_on": "Heart", "assay": "Biodistribution in S180 tumor-bearing KM mouse heart assessed per gram of tissue weight at 240 to 370 kBq, iv after 5 mins", "type": "ADME, organism-based", "settings": "in vivo", "units": {"Drug uptake": "%ID"}, "values": [
      {"smiles": "OC[C@H]1O[C@@H](O)[C@H]([18F])[C@@H](O)[C@@H]1O", "note": "[FLUDEOXYGLUCOSE-F18]", "Drug uptake": 2.6}
    ]},
    {"tested_on": "Blood", "assay": "Biodistribution in S180 tumor-bearing KM mouse blood assessed per gram of tissue weight at 240 to 370 kBq, iv after 120 mins", "type": "ADME, organism-based", "settings": "in vivo, 2 h", "units": {"Drug uptake": "%ID"}, "values": [
      {"smiles": "OC[C@H]1O[C@@H](O)[C@H]([18F])[C@@H](O)[C@@H]1O", "note": "[FLUDEOXYGLUCOSE-F18]", "Drug uptake": 0.11}
    ]},
    {"tested_on": "Blood", "assay": "Biodistribution in S180 tumor-bearing KM mouse blood assessed per gram of tissue weight at 240 to 370 kBq, iv after 60 mins", "type": "ADME, organism-based", "settings": "in vivo, 1 h", "units": {"Drug uptake": "%ID"}, "values": [
      {"smiles": "OC[C@H]1O[C@@H](O)[C@H]([18F])[C@@H](O)[C@@H]1O", "note": "[FLUDEOXYGLUCOSE-F18]", "Drug uptake": 0.11}
    ]},
    {"tested_on": "Blood", "assay": "Biodistribution in S180 tumor-bearing KM mouse blood assessed per gram of tissue weight at 240 to 370 kBq, iv after 30 mins", "type": "ADME, organism-based", "settings": "in vivo, 0.5 h", "units": {"Drug uptake": "%ID"}, "values": [
      {"smiles": "OC[C@H]1O[C@@H](O)[C@H]([18F])[C@@H](O)[C@@H]1O", "note": "[FLUDEOXYGLUCOSE-F18]", "Drug uptake": 0.16}
    ]},
    {"tested_on": "Blood", "assay": "Biodistribution in S180 tumor-bearing KM mouse blood assessed per gram of tissue weight at 240 to 370 kBq, iv after 15 mins", "type": "ADME, organism-based", "settings": "in vivo, 0.25 h", "units": {"Drug uptake": "%ID"}, "values": [
      {"smiles": "OC[C@H]1O[C@@H](O)[C@H]([18F])[C@@H](O)[C@@H]1O", "note": "[FLUDEOXYGLUCOSE-F18]", "Drug uptake": 0.46}
    ]},
    {"tested_on": "Blood", "assay": "Biodistribution in S180 tumor-bearing KM mouse blood assessed per gram of tissue weight at 240 to 370 kBq, iv after 5 mins", "type": "ADME, organism-based", "settings": "in vivo", "units": {"Drug uptake": "%ID"}, "values": [
      {"smiles": "OC[C@H]1O[C@@H](O)[C@H]([18F])[C@@H](O)[C@@H]1O", "note": "[FLUDEOXYGLUCOSE-F18]", "Drug uptake": 1.09}
    ]},
    {"tested_on": "Brain", "assay": "Biodistribution in S180 tumor-bearing KM mouse brain assessed per gram of tissue at 240 to 370 kBq, iv after 30 mins", "type": "ADME, organism-based", "settings": "in vivo, 0.5 h", "units": {"Drug uptake": "%ID"}, "values": [
      {"smiles": "OC[C@H]1O[C@@H](O)[C@H]([18F])[C@@H](O)[C@@H]1O", "note": "[FLUDEOXYGLUCOSE-F18]", "Drug uptake": 3.07}
    ]},
    {"tested_on": "Brain", "assay": "Biodistribution in S180 tumor-bearing KM mouse brain assessed per gram of tissue at 240 to 370 kBq, iv after 60 mins", "type": "ADME, organism-based", "settings": "in vivo, 1 h", "units": {"Drug uptake": "%ID"}, "values": [
      {"smiles": "OC[C@H]1O[C@@H](O)[C@H]([18F])[C@@H](O)[C@@H]1O", "note": "[FLUDEOXYGLUCOSE-F18]", "Drug uptake": 2.11}
    ]},
    {"tested_on": "Brain", "assay": "Biodistribution in S180 tumor-bearing KM mouse brain assessed per gram of tissue at 240 to 370 kBq, iv after 120 mins", "type": "ADME, organism-based", "settings": "in vivo, 2 h", "units": {"Drug uptake": "%ID"}, "values": [
      {"smiles": "OC[C@H]1O[C@@H](O)[C@H]([18F])[C@@H](O)[C@@H]1O", "note": "[FLUDEOXYGLUCOSE-F18]", "Drug uptake": 1.28}
    ]},
    {"tested_on": "not listed separately", "assay": "Biodistribution in S180 tumor present in KM mouse assessed per gram of tissue at 240 to 370 kBq, iv after 5 mins", "type": "ADME, organism-based, Neoplasm", "settings": "in vivo", "units": {"Drug uptake": "%ID"}, "values": [
      {"smiles": "OC[C@H]1O[C@@H](O)[C@H]([18F])[C@@H](O)[C@@H]1O", "note": "[FLUDEOXYGLUCOSE-F18]", "Drug uptake": 1.27}
    ]},
    {"tested_on": "not listed separately", "assay": "Biodistribution in S180 tumor present in KM mouse assessed per gram of tissue at 240 to 370 kBq, iv after 30 mins", "type": "ADME, organism-based, Neoplasm", "settings": "in vivo, 0.5 h", "units": {"Drug uptake": "%ID"}, "values": [
      {"smiles": "OC[C@H]1O[C@@H](O)[C@H]([18F])[C@@H](O)[C@@H]1O", "note": "[FLUDEOXYGLUCOSE-F18]", "Drug uptake": 1.86}
    ]},
    {"tested_on": "not listed separately", "assay": "Biodistribution in S180 tumor present in KM mouse assessed per gram of tissue at 240 to 370 kBq, iv after 120 mins", "type": "ADME, organism-based, Neoplasm", "settings": "in vivo, 2 h", "units": {"Drug uptake": "%ID"}, "values": [
      {"smiles": "OC[C@H]1O[C@@H](O)[C@H]([18F])[C@@H](O)[C@@H]1O", "note": "[FLUDEOXYGLUCOSE-F18]", "Drug uptake": 1.7}
    ]},
    {"tested_on": "not listed separately", "assay": "Ratio of drug level in S180 tumor to blood in KM mouse at 240 to 370 kBq, iv after 15mins", "type": "ADME, organism-based", "settings": "tumour, 0.25 h", "values": [
      {"smiles": "OC[C@H]1O[C@@H](O)[C@H]([18F])[C@@H](O)[C@@H]1O", "note": "[FLUDEOXYGLUCOSE-F18]", "tumor/blood ratio": 3.42}
    ]},
    {"tested_on": "not listed separately", "assay": "Ratio of drug level in S180 tumor to blood in KM mouse at 240 to 370 kBq, iv after 60 mins", "type": "ADME, organism-based", "settings": "tumour, 1 h", "values": [
      {"smiles": "OC[C@H]1O[C@@H](O)[C@H]([18F])[C@@H](O)[C@@H]1O", "note": "[FLUDEOXYGLUCOSE-F18]", "tumor/blood ratio": 19.5}
    ]},
    {"tested_on": "not listed separately", "assay": "Ratio of drug level in S180 tumor to brain KM mouse at 240 to 370 kBq, iv after 5 mins", "type": "ADME, organism-based", "settings": "in vivo", "values": [
      {"smiles": "OC[C@H]1O[C@@H](O)[C@H]([18F])[C@@H](O)[C@@H]1O", "note": "[FLUDEOXYGLUCOSE-F18]", "tumor/brain ratio": 0.53}
    ]},
    {"tested_on": "not listed separately", "assay": "Ratio of drug level in S180 tumor to brain KM mouse at 240 to 370 kBq, iv after 15 mins", "type": "ADME, organism-based", "settings": "in vivo, 0.25 h", "values": [
      {"smiles": "OC[C@H]1O[C@@H](O)[C@H]([18F])[C@@H](O)[C@@H]1O", "note": "[FLUDEOXYGLUCOSE-F18]", "tumor/brain ratio": 0.59}
    ]},
    {"tested_on": "not listed separately", "assay": "Ratio of drug level in S180 tumor to brain KM mouse at 240 to 370 kBq, iv after 30 mins", "type": "ADME, organism-based", "settings": "in vivo, 0.5 h", "values": [
      {"smiles": "OC[C@H]1O[C@@H](O)[C@H]([18F])[C@@H](O)[C@@H]1O", "note": "[FLUDEOXYGLUCOSE-F18]", "tumor/brain ratio": 0.61}
    ]},
    {"tested_on": "not listed separately", "assay": "Ratio of drug level in S180 tumor to brain KM mouse at 240 to 370 kBq, iv after 60 mins", "type": "ADME, organism-based", "settings": "in vivo, 1 h", "values": [
      {"smiles": "OC[C@H]1O[C@@H](O)[C@H]([18F])[C@@H](O)[C@@H]1O", "note": "[FLUDEOXYGLUCOSE-F18]", "tumor/brain ratio": 1.02}
    ]},
    {"tested_on": "not listed separately", "assay": "Ratio of drug level in S180 tumor to brain KM mouse at 240 to 370 kBq, iv after 120 mins", "type": "ADME, organism-based", "settings": "in vivo, 2 h", "values": [
      {"smiles": "OC[C@H]1O[C@@H](O)[C@H]([18F])[C@@H](O)[C@@H]1O", "note": "[FLUDEOXYGLUCOSE-F18]", "tumor/brain ratio": 1.33}
    ]},
    {"tested_on": "not listed separately", "assay": "Ratio of drug level in S180 tumor to muscleKM mouse at 240 to 370 kBq, iv after 5 mins", "type": "ADME, organism-based, KM", "settings": "in vivo", "values": [
      {"smiles": "OC[C@H]1O[C@@H](O)[C@H]([18F])[C@@H](O)[C@@H]1O", "note": "[FLUDEOXYGLUCOSE-F18]", "tumor/muscle ratio": 0.81}
    ]},
    {"tested_on": "not listed separately", "assay": "Ratio of drug level in S180 tumor to muscleKM mouse at 240 to 370 kBq, iv after 30 mins", "type": "ADME, organism-based, KM", "settings": "in vivo, 0.5 h", "values": [
      {"smiles": "OC[C@H]1O[C@@H](O)[C@H]([18F])[C@@H](O)[C@@H]1O", "note": "[FLUDEOXYGLUCOSE-F18]", "tumor/muscle ratio": 1.75}
    ]}
  ]
}
